From US9834525B2, “Inhibitors of paxillin function and related compositions and methods” (UNIVERSITY OF TENNESSEE RESEARCH FOUNDATION, priority 2015, dated 2017) come the findings set out here.

Entries after “also recorded” stand apart in the source; their conditions may differ. Read-outs that look alike come from different tables or passages of the source.

One assay deals with paxillin. The assay is described as follows: Murine OIR model, Western blot of retinal homogenates. The class given is in vivo, mouse. Conditions: daily ocular administration 0.5 mg/kg or 5 mg/kg, P17. The source says:
Topical delivery of compound (II-4) using an ocular ME was chosen for several reasons. First, intravitreal injection is technically challenging and, unlike intraocular delivery of proteins, is unnecessary for delivery of small molecules. […] The murine OIR model was used to examine the effect of compound (II-4) on the natural history of VEGF-induced proliferative retinopathy. Briefly, pups were exposed to 75% oxygen at post-natal day 7 (P7) for 5 days and then returned to normal oxygen at P12. Mice received daily ocular administration of either compound (II-4) (0.5 mg/kg or 5 mg/kg) or vehicle (ME) from P12 to P17. Eyes were enucleated at P17 and retinal whole-mounts stained for endothelial cells followed by quantification of avascular area and vascular tuft formation.
FIG. 22: Oxygen-Induced Retinopathy (OIR). (A:) P17 retinal whole-mounts were stained for endothelial cells. […] Data represent mean (±SD). N=8-14/group. […] (C): Quantitation of panel A neovascular area. (D): Quantitation of panel A avascular area. (E): Quantitation of panel B total paxillin.
Background: In western blotting, separated proteins are transferred to a membrane and probed.

The test system of assay [1] is retinal endothelial cells (REC). The assay is described as follows: REC scratch-wound assay, VEGF-induced migration. The class given is cell-based, human. Conditions: for IC50: Homo sapiens, Endothelial cell. As for the experimental part: RECs were wounded and treated with VEGF (20 ng/mL) and either compound (II-4) (1 μM) or vehicle. Compound (II-4) reduced migration by ˜10-fold when measured 24 hrs post-scratch. (*P<0.001; n=6).
Two methods of evaluating VEGF-induced REC migration were used to assess the impact of compound (II-4) on paxillin-mediated migration: the scratch assay and the transwell (Boyden chamber) cell migration assay. To test if paxillin inhibition would reduce VEGF-induced REC migration, RECs were wounded and treated with VEGF ([…]) +/− compound (II-4) ([…]). Wound closure was monitored by phase microscopy over 24 hours and area of wound closure was calculated using the sophisticated image analysis tools in Adobe Photoshop. Cells were then fixed and nuclei were stained using DAPI to show extent of cell migration.
FIG. 2: REC scratch-wound assay. RECs were wounded and treated with VEGF (20 ng/mL) and either compound (II-4) (1 μM) or vehicle. Compound (II-4) reduced migration by ˜10-fold when measured 24 hrs post-scratch. (*P<0.001; n=6)
FIG. 17: REC migration. A) Increasing concentrations of compound (II-4) inhibit VEGF-induced migration in a scratch wound assay; [Serum Free-control, VEGF (100 ng/mL), VEGF+100 nM, 500 nM, 10 μM, 100 μM] (IC50≈180 ηM; n=6/group). Cells were stained with DAPI for representative images. B) RECs seeded onto transwell membranes were stimulated with VEGF+ vehicle or compound (II-4) for 24 hrs. Cells were removed from the topside of membrane and migrated cells were stained with DAPI [Serum-Free (SF), VEGF, +100, +500 nM, respectively]. Cell number was measured using fluorescence microscopy. All data are mean±SD (*, # P<0.001)

Assay [2] shares this test system. The assay is described as follows: REC attachment assay. Conditions: increasing concentrations (100 nM to 1 μM), six hours. It counts as cell-based, human. The source says:
Adhesive interactions with extracellular matrix proteins rely on focal adhesion proteins engaging with integrins to strengthen and maintain cell contacts. In the transwell migration assay system, initial cell-attachment to the porous membrane was relied upon in order to obtain a measure of cells that have migrated through to the underside of the well. Since compound (II-4) was in direct contact with cells prior to being seeded onto the transwell membranes, the potential of compound (II-4) to impede the attachment of RECs to the membranes was investigated. […] However, investigation of integrin-mediated signaling may be of interest to further evaluate and characterize compound (II-4)'s potential role in disrupting cross-talk between growth-factor and integrin-mediated signaling during pathological retinal angiogenesis.
FIG. 19: REC attachment assay. Increasing concentrations of compound (II-4) with suspended RECs were seeded to 96-wells to investigate inhibition of REC-adherence to attachment-factor surfaces. […] (P>0.05; n=8).

In the case of `COc1cc(C2OC(=O)Nc3c2ccc2ccccc32)cc(OC)c1OC` (centres unmarked) [compound II-4], in the assay on paxillin, the “total paxillin in retinal homogenates” value is given as “dose-dependent reduction; also recorded: reduced total paxillin protein”. Besides, the IC50 in assay [1] (VEGF (100 ng/mL), n=6/group, read-out: IC50, inhibition of VEGF-induced migration in scratch wound assay) is about 180 nM; in assay [1] (wound closure at 24 hours, VEGF (100 μg/mL), compound 100 μM to 10 μM as printed, read-out: IC50, inhibition of VEGF-induced REC migration (wound closure)), 181 nM. In addition, the “reduction of migration in REC scratch-wound assay” value in assay [1] (VEGF (20 ng/mL), compound (II-4) 1 μM vs vehicle, 24 hrs post-scratch) was about 10 fold. In assay [2], the “attachment of RECs to attachment-factor coated wells” value is recorded as “did not impede the attachment”.
